This note sets out measurements from article PMC7724566, “Prospects for Clinical Development of Stat5 Inhibitor IST5-002: High Transcriptomic Specificity in Prostate Cancer and Low Toxicity In Vivo” (Cancers, 2020).

The assay has as its target T1, Stat5 (Homo sapiens, UniProt P42229).
T1 construct: expressed in transfected cells; host or cells: CWR22Rv1
Nature of the assay: Native-gel-based Stat5 dimerization assay, CWR22Rv1 cells. The format is cell-based. The note with it: 1 µM, 6 h, Prl (10 nM) stimulated CWR22Rv1 cells, STAT5A-eYFP. An excerpt:
Having established that IST5 and IST5-M both interrupt phosphorylation of Stat5, we next investigated the potency of IST5-M vs. IST5 in suppressing dimerization of Stat5 in PC cells. First, we performed a native Polyacrylamide Gel Electrophoresis (PAGE) based Stat5 dimerization assay established originally by Fahrenkamp et al., where CWR22Rv1 cells were transfected with STAT5A-eYFP (Stat5 wild type), STAT5A-N642H-eYFP (constitutive activated Stat5 by N642H mutation, as a positive control) or STAT3-eYFP (Stat3 wild type, as a negative control) constructs for 3 days (Figure 5A). CWR22Rv1 cells were starved for 16 h, pretreated with vanadate (1 mM) for 2 h, followed by treatment with vehicle, IST5 or IST5-M (1 µM) for 6 h and stimulation with Prl (10 nM) for 1 h.
Figure 5 Both IST5 and IST5-M suppress dimerization of Stat5 with similar efficacies in prostate cancer cells. (A), IST5 and IST5-M inhibit equally potently dimerization of Stat5 in native-gel-based Stat5 dimerization assay. […] Dimerization of Stat5 was analyzed by detection of the eYFP fluorescence of the native Coomassie gel. […] (E), differences in posttranslational modifications were detected between native and recombinant STAT5a using mass spectrometry. Native STAT5a from CWR22Rv1 cells and recombinant STAT5a from E. coli were gel-purified, digested using trypsin, and analyzed by bottom-up mass spectrometry. […]

T1 sequence (P42229 whole entry, species assumed): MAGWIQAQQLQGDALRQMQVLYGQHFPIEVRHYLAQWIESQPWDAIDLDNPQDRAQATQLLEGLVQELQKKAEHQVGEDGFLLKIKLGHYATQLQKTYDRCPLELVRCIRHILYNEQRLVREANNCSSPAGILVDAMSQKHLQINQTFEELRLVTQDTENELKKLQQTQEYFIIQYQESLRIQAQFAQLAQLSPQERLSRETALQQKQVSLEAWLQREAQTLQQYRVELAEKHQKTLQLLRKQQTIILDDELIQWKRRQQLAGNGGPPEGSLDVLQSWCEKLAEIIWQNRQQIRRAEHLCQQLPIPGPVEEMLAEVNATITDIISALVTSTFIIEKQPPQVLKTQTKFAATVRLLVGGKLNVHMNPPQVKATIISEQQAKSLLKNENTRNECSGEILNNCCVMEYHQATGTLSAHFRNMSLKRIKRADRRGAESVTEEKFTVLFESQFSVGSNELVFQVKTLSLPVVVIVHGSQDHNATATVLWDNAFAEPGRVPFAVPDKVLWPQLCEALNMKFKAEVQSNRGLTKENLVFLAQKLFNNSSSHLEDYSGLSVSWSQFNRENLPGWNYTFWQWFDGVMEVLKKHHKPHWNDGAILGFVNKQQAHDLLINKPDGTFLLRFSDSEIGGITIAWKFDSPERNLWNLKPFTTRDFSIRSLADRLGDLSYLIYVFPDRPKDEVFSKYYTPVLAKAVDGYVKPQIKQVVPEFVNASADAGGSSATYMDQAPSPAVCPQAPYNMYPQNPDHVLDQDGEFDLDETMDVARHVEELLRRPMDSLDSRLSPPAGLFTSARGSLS

Take `O=P(O)(O)OCC1OC(n2cnc3c(NCc4ccccc4)ncnc32)C(O)C1O` (stereo not shown) [IST5]: the “inhibition of Stat5 dimerization” value was “inhibited robustly”.
